# Results taken from US5281628A, “9-amino-7-(substituted)-6-demethyl-6-deoxytetracyclines” (American Cyanamid Company, priority 1991, dated 1994).
# Structures can show the parent of a compound that is named as a salt.
# Columns and labels:
# [1] = test system: tetracycline sensitive and resistant Gram-positive and Gram-negative bacteria; assay: In vitro antibacterial evaluation, statements on the whole panel; type: cell-based
# Protocol: (§1) The minimum inhibitory concentration (MIC), the lowest concentration of the antibiotic which inhibits growth of the test organism, is determined by the microtiter broth dilution method using 0.1 ml Muller-Hinton II broth (Baltimore Biological Laboratories) per well. A suitable oxygen scavenger (i.e., cysteine or dithiothreitol) is added to the assay medium for the testing of compounds according to Formula I because of the sensitivity of those compounds to oxidation. An inoculum level of 1-5×10^5 CFU/ml and a range of antibiotic concentrations (32 0.004 μg/ml) are used.
# [2] = test system: S. haemolyticus AVAH 88-3; assay: MIC, microtiter broth dilution; type: cell-based; conditions: Staphylococcus haemolyticus, AVAH883, 18 h; S. haemolyticus AVAH 88-3; in the presence of cysteine (0.05%); read-out: MIC
# Protocol: as §1
# [3] = test system: Coagulase negative staphylococci CI 664; assay: MIC, microtiter broth dilution; type: cell-based; conditions: 18 h, in the presence of cysteine (0.05%)
# Protocol: as §1
# [4] = test system: S. aureus IVES 2943 (methicillin-resistant); assay: MIC, microtiter broth dilution; type: cell-based; conditions: Staphylococcus aureus, 18 h, in the presence of cysteine (0.05%)
# Protocol: as §1
# [5] = test system: E. faecalis ATCC 29212; assay: MIC, microtiter broth dilution; type: cell-based; conditions: Enterococcus faecalis, ATCC29212, 18 h, in the presence of cysteine (0.05%)
# Protocol: as §1
# [6] = test system: S. marcescens FPOR 87-33; assay: MIC, microtiter broth dilution; type: cell-based; conditions: Serratia marcescens, FPOR8733, 18 h, in the presence of cysteine (0.05%)
# Protocol: as §1
# [7] = test system: Coagulase negative staphylococci CI 535; assay: MIC, microtiter broth dilution; type: cell-based; conditions: 18 h, in the presence of cysteine (0.05%)
# Protocol: as §1
# [8] = test system: E. faecalis 12201 (vancomycin-resistant); assay: MIC, microtiter broth dilution; type: cell-based; conditions: Enterococcus faecalis, 18 h, in the presence of cysteine (0.05%)
# Protocol: as §1
# [9] = test system: S. aureus CI 2371 (methicillin-resistant); assay: MIC, microtiter broth dilution; type: cell-based; conditions: Staphylococcus aureus, 18 h, in the presence of cysteine (0.05%)
# Protocol: as §1
# [10] = test system: S. aureus UBMS 88-4 (tetracycline-sensitive); assay: MIC, microtiter broth dilution; type: cell-based; conditions: Staphylococcus aureus, 18 h, in the presence of cysteine (0.05%)
# Protocol: as §1
# [11] = test system: E. coli ATCC 25922; assay: MIC, microtiter broth dilution; type: cell-based; conditions: Escherichia coli, ATCC25922, 18 h, in the presence of cysteine (0.05%)
# Protocol: as §1
# [12] = test system: S. aureus UBMS 90-3 (tetracycline-sensitive); assay: MIC, microtiter broth dilution; type: cell-based; conditions: Staphylococcus aureus, 18 h, in the presence of cysteine (0.05%)
# Protocol: as §1
# [13] = test system: E. coli S30 Ribosomes, tetM Variant (tetM protected ribosomes); assay: In vitro protein translation with E. coli S30 ribosomes, tetM variant; type: biochemical
# Protocol: (§2) The E. coli in vitro translation system can be used to study not only the mechanism of protein translation itself, but also the effect that various compounds may have on protein synthesis. The system can be set up to function as a coupled transcription and translation system or as a translation only system depending on whether DNA or RNA is added to initiate protein synthesis. In this way, compounds affecting either RNA synthesis and/or protein synthesis can be studied. Protein synthesis is monitored by the incorporation of radiolabeled amino acids into trichloroacetic acid precipitable material. The system used is based upon literature methods [G. Zubay, Ann. Rev. Genet., 7: 267-287(1973) and J. Collins, Gene, 6: 28-42 (1979)].
# (§3) The system used to study tetracycline protein synthesis inhibition is as follows:
# (§4) An S30 extract (supernatant from a 30,000×G centrifugation of lysed cells) of either tetracycline sensitive or tetracycline resistant (tetM+) cells is combined with a mixture of low molecular weight compounds required for protein synthesis which include a mixture of 19 amino acids, methionine, ^35 S-methionine, plasmid template DNA and either dimethylsulfoxide (DMSO) or the tetracycline to be tested dissolved and diluted in DMSO. This mixture is incubated at 37° C. for 30 minutes. Following the incubation, 2.5 μl of the 10 μl reaction is removed and added to 0.5 ml of 1N sodium hydroxide. The solution is incubated an additional 15 minutes at 37° C., to destroy any m-RNA and t-RNA. The incorporation of ^35 S-methionine is determined by precipitating the high molecular weight material in the sodium hydroxide aliquot with trichloroacetic acid (TCA), collecting the precipitated material on Whatman G/FC filters, drying the filters and counting the radioactivity retained on the filter. Percent inhibition (P.I.) of protein synthesis is determined by the following equation: [formula]
# [14] = test system: E. coli S30 Ribosomes, Wild Type (tetracycline sensitive); assay: In vitro protein translation with E. coli S30 ribosomes, wild type; type: biochemical
# Protocol: as §2, §3, §4
# [15] = coupled transcription and translation system
# [16] = tetM S30 with DTT, 1:2 Dilution
# [17] = tetM S30 with DTT, 1:4 Dilution
# [18] = tetM S30 with DTT, 1:8 Dilution
# [19] = tetM S30 with DTT, 1:16 Dilution
# [20] = tetM S30 with DTT, 1:32 Dilution
# [21] = tetM S30 with DTT, 1:64 Dilution
# [22] = Wild Type S30 no DTT, 1.0 mg/ml
# [23] = Wild Type S30 no DTT, 1:2 Dilution
# [24] = Wild Type S30 no DTT, 1:4 Dilution
# [25] = Wild Type S30 no DTT, 1:8 Dilution
# [26] = Wild Type S30 no DTT, 1:16 Dilution
# [27] = Wild Type S30 no DTT, 1:32 Dilution
# [28] = Wild Type S30 no DTT, 1:64 Dilution
# [29] = Wild Type S30 with DTT, 1.0 mg/ml
# [30] = Wild Type S30 with DTT, 1:2 Dilution
# [31] = Wild Type S30 with DTT, 1:4 Dilution
# [32] = Wild Type S30 with DTT, 1:8 Dilution
# [33] = Wild Type S30 with DTT, 1:16 Dilution
# [34] = Wild Type S30 with DTT, 1:32 Dilution
# [35] = Wild Type S30 with DTT, 1:64 Dilution
smiles,measurement,setting,value
"CN(C)c1cc(N)c(O)c2c1C[C@H]1C[C@H]3[C@H](N(C)C)C(O)=C(C(N)=O)C(=O)[C@@]3(O)C(O)=C1C2=O [A, 9-Amino-7-(dimethylamino)-6-demethyl-6-deoxytetracycline hydrochloride]",in vitro activity against tetracycline resistant strains carrying the tetM resistance determinant,"[1]; S. aureus UBMS 88-5, 90-1 and 90-2, E. coli UBMS 89-1 and 90-4",good in vitro activity
same,effectiveness vs. susceptible strains compared with B,"[1]; susceptible strains, comparator B",equally as effective
same,MIC,[2],0.06 µg/mL
same,MIC,[3],0.003 µg/mL
same,MIC,[4],0.5 µg/mL
same,MIC,[5],0.06 µg/mL
same,MIC,[6],4 µg/mL
same,MIC,[7],1 µg/mL
same,MIC,[8],0.5 µg/mL
same,MIC,[9],0.5 µg/mL
same,MIC,[10],0.015 µg/mL
same,MIC,[11],0.25 µg/mL
same,MIC,[12],0.015 µg/mL
same,inhibition of protein synthesis on tetM protected ribosomes (in words),[13]; [15],effective in inhibiting protein synthesis
same,% Inhibition,"[13]; tetM S30 no DTT, 1.0 mg/ml",48%
same,Counts,"[13]; tetM S30 no DTT, 1.0 mg/ml",129780
same,% Inhibition,"[13]; tetM S30 no DTT, 1:2 Dilution",36%
same,Counts,"[13]; tetM S30 no DTT, 1:2 Dilution",158861
same,% Inhibition,"[13]; tetM S30 no DTT, 1:4 Dilution",18%
same,Counts,"[13]; tetM S30 no DTT, 1:4 Dilution",203184
same,% Inhibition,"[13]; tetM S30 no DTT, 1:8 Dilution",7%
same,Counts,"[13]; tetM S30 no DTT, 1:8 Dilution",231447
same,% Inhibition,"[13]; tetM S30 no DTT, 1:16 Dilution",0%
same,Counts,"[13]; tetM S30 no DTT, 1:16 Dilution",305633
same,% Inhibition,"[13]; tetM S30 no DTT, 1:32 Dilution",0%
same,Counts,"[13]; tetM S30 no DTT, 1:32 Dilution",349994
same,% Inhibition,"[13]; tetM S30 no DTT, 1:64 Dilution",0%
same,Counts,"[13]; tetM S30 no DTT, 1:64 Dilution",310723
same,% Inhibition,"[13]; tetM S30 with DTT, 1.0 mg/ml",68%
same,Counts,"[13]; tetM S30 with DTT, 1.0 mg/ml",145068
same,% Inhibition,[13]; [16],62%
same,Counts,[13]; [16],168574
same,% Inhibition,[13]; [17],49%
same,Counts,[13]; [17],226708
same,% Inhibition,[13]; [18],36%
same,Counts,[13]; [18],284606
same,% Inhibition,[13]; [19],16%
same,Counts,[13]; [19],375989
same,% Inhibition,[13]; [20],8%
same,Counts,[13]; [20],412967
same,% Inhibition,[13]; [21],0%
same,Counts,[13]; [21],507461
same,% Inhibition,[14]; [22],88%
same,Counts,[14]; [22],52595
same,% Inhibition,[14]; [23],82%
same,Counts,[14]; [23],80494
same,% Inhibition,[14]; [24],79%
same,Counts,[14]; [24],95015
same,% Inhibition,[14]; [25],72%
same,Counts,[14]; [25],130209
same,% Inhibition,[14]; [26],55%
same,Counts,[14]; [26],205392
same,% Inhibition,[14]; [27],35%
same,Counts,[14]; [27],297786
same,% Inhibition,[14]; [28],46%
same,Counts,[14]; [28],245494
same,% Inhibition,[14]; [29],96%
same,Counts,[14]; [29],38121
same,% Inhibition,[14]; [30],93%
same,Counts,[14]; [30],60891
same,% Inhibition,[14]; [31],89%
same,Counts,[14]; [31],92203
same,% Inhibition,[14]; [32],84%
same,Counts,[14]; [32],143215
same,% Inhibition,[14]; [33],75%
same,Counts,[14]; [33],214831
same,% Inhibition,[14]; [34],73%
same,Counts,[14]; [34],238321
same,% Inhibition,[14]; [35],56%
same,Counts,[14]; [35],380103
same,inhibition of protein synthesis on wild type ribosomes (in words),[14]; [15],effectively inhibit protein synthesis
